Source: patent US5115017A, “Polyvinyl oleate as a fat replacement” (Nabisco Brands, Inc., priority 1989, dated 1992)

Target: T1, porcine pancreatic lipase (Sus scrofa, UniProt P00591)
T1 construct: purchased U.S. Biochemical Corporation
T1 sequence (P00591 1-450): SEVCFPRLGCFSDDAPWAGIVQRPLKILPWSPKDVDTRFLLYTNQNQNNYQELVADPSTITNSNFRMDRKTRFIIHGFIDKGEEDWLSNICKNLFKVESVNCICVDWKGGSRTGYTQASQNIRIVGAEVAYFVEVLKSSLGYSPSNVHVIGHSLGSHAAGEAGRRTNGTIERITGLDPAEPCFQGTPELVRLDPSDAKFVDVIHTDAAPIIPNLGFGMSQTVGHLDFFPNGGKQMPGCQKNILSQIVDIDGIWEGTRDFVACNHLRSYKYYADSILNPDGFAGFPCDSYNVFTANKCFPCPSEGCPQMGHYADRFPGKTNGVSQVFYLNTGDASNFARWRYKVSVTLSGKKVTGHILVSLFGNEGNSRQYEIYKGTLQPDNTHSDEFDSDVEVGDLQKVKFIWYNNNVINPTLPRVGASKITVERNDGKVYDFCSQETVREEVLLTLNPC
Assay: in vitro digestibility (lipase hydrolysis) screening test
Assay type: biochemical
Conditions: in 10 minutes with this enzyme system, 37° C., pH 7.1 phosphate buffer; triglyceride control
Experimental: This example outlines the procedure for estimating the in vitro digestibility of the polyvinyl esters of this invention.
Buffer: A pH 7.1 phosphate buffer is prepared by dissolving 6.8 g. KH2 PO4 in 1 L. of millipore filtered water (to yield 0.05M phosphate). Fifty mg. Ca(NO3)2 and 5.0 g. cholic acid (Na salt, an ox bile isolate from Sigma) are added to give 300 microM Ca^++ and 0.5% cholic acid in 0.05M phosphate. The pH is adjusted to approximately 7.1 with solid NaOH. Several drops of Baker "Resi-analyzed" toluene are added to prevent bacterial growth during storage at 3-5° C.
Lipase: About 15 mg./mL commercial porcine pancreatic lipase from U.S. Biochemical Corporation is dissolved in buffer.
(The proper concentration may be approximated by doubling the molecular weight of the lipid in question, dividing by 10, and diluting to the mark; this yields about 200 nanomoles per microliter.) This preparation affords the substrate to be used in the hydrolysis reactions. Fatty acids and glyceride standards from Nu Chek or Sigma are prepared for elution on TLC plates (prewashed with 1:1 chloroform/methanol) by diluting the substrate solution with 10:1 toluene (1 part substrate plus 9 parts toluene) in septum vials. […]

hydrolysis by pancreatic lipase (in vitro digestibility): substantially hydrolyzed
Compound: CCCCCCCC/C=C\CCCCCCCC(=O)OCC(COC(=O)CCCCCCC/C=C\CCCCCCCC)OC(=O)CCCCCCC/C=C\CCCCCCCC [triolein]
